Earlier results on one compound are cited in patent publication US6166065A, “2,3-dioxabicyclo[3.3.1]nonane derivatives and antimalarial pharmaceutical compositions comprising them” (Yeda Research and Development Co., Ltd., priority 1997, dated 2000).

The test system of data set [1] is Plasmodium berghei (N strain). More on the design: ED90: unit not given beside the values; ED50: unit not given here. The conditions noted are these: against P. berghei; cited from earlier work.
The conditions of data set [2]: cited from earlier work.

For `C[C@@H]1C(=O)C[C@H]2C[C@@H]1OO[C@@]2(C)/C=C\c1ccc(C(F)(F)F)cc1C(F)(F)F` [arteflene], in data set [1], the ED50 is given as 2.7 and the ED90 was 3.9. Also, in data set [2], the “in vitro and in vivo antimalarial screening, clinical trials” value is recorded as “gave encouraging results”.
